Tested on: 439559-082-T-J2-PDC spheroid viability
Test: Anticancer human tumor 439559-082-T-J2-PDC patient-derived colon adenocarcinoma cell line growth inhibition [POLQ]
Conditions: spheroids with HUVEC and MSC; for IC50: curve of first compound; for viability, T/C: stronger effect = lower value
Summary of the method: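 Patient-derived tumour cells were co-cultured with HUVEC and mesenchymal stem cells as multicellular spheroids at 37 °C. They were treated with POLQ inhibitors (novobiocin, ART-558, RP6685) alone or combined with other agents. Top concentrations were at or near clinical Cmax (otherwise 10 microM; SN-38 at 1 microM), decreasing in half-log steps.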

[1] = second compound 0.0316 µM, first compound 0.0316 µM
[2] = second compound 0.0316 µM, first compound 0.1 µM
[3] = second compound 0.0316 µM, first compound 0.316 µM
[4] = second compound 0.0316 µM, first compound 1 µM
[5] = second compound 0.1 µM, first compound 0.0316 µM
[6] = second compound 0.1 µM, first compound 0.1 µM
[7] = second compound 0.1 µM, first compound 0.316 µM
[8] = second compound 0.1 µM, first compound 1 µM
[9] = second compound 0.316 µM, first compound 0.0316 µM
[10] = second compound 0.316 µM, first compound 0.1 µM
[11] = second compound 0.316 µM, first compound 0.316 µM
[12] = second compound 0.316 µM, first compound 1 µM
[13] = second compound 1 µM, first compound 0.0316 µM
[14] = second compound 1 µM, first compound 0.1 µM
[15] = second compound 1 µM, first compound 0.316 µM
[16] = second compound 1 µM, first compound 1 µM
[17] = second compound 3.16 µM, first compound 0.0316 µM
[18] = second compound 3.16 µM, first compound 0.1 µM
[19] = second compound 3.16 µM, first compound 0.316 µM
[20] = second compound 3.16 µM, first compound 1 µM
[21] = second compound 10 µM, first compound 0.0316 µM
[22] = second compound 10 µM, first compound 0.1 µM
[23] = second compound 10 µM, first compound 0.316 µM
[24] = second compound 10 µM, first compound 1 µM
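Further: spheroids exposed to compounds for seven days before readout.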
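Wherever viability, T/C is given: 100% = DMSO vehicle control viability.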

## COc1cccc(OCCCN)c1-c1cc(Nc2cnc(C#N)cn2)n[nH]1 + COC1C(OC(N)=O)C(O)C(Oc2ccc3c(O)c(NC(=O)c4ccc(O)c(CC=C(C)C)c4)c(=O)oc3c2C)OC1(C)C
Second compound 0.0316 µM
  IC50: 142 nM
Second compound 0.1 µM
  IC50: 158 nM
Second compound 0.316 µM
  IC50: 145 nM
Second compound 1 µM
  IC50: 109 nM
Second compound 3.16 µM
  IC50: 133 nM
Second compound 10 µM
  IC50: 128 nM
Second compound 0.0316 µM, first compound 0.00316 µM
  viability, T/C: 87%
Second compound 0.0316 µM, first compound 0.01 µM
  viability, T/C: 88.1%
[1]
  viability, T/C: 70.1%
[2]
  viability, T/C: 61.4%
[3]
  viability, T/C: 31.3%
[4]
  viability, T/C: 17.4%
Second compound 0.1 µM, first compound 0.00316 µM
  viability, T/C: 98.5%
Second compound 0.1 µM, first compound 0.01 µM
  viability, T/C: 82%
[5]
  viability, T/C: 76.4%
[6]
  viability, T/C: 65.3%
[7]
  viability, T/C: 30.9%
[8]
  viability, T/C: 18.3%
Second compound 0.316 µM, first compound 0.00316 µM
  viability, T/C: 94.6%
Second compound 0.316 µM, first compound 0.01 µM
  viability, T/C: 90.3%
[9]
  viability, T/C: 72.3%
[10]
  viability, T/C: 62%
[11]
  viability, T/C: 31.7%
[12]
  viability, T/C: 19.1%
Second compound 1 µM, first compound 0.00316 µM
  viability, T/C: 105%
Second compound 1 µM, first compound 0.01 µM
  viability, T/C: 82.1%
[13]
  viability, T/C: 72.6%
[14]
  viability, T/C: 52.9%
[15]
  viability, T/C: 31.8%
[16]
  viability, T/C: 16.4%
Second compound 3.16 µM, first compound 0.00316 µM
  viability, T/C: 102%
Second compound 3.16 µM, first compound 0.01 µM
  viability, T/C: 85.6%
[17]
  viability, T/C: 73.6%
[18]
  viability, T/C: 59.1%
[19]
  viability, T/C: 30.9%
[20]
  viability, T/C: 18.2%
Second compound 10 µM, first compound 0.00316 µM
  viability, T/C: 103%
Second compound 10 µM, first compound 0.01 µM
  viability, T/C: 86.8%
[21]
  viability, T/C: 77%
[22]
  viability, T/C: 56.4%
[23]
  viability, T/C: 30.5%
[24]
  viability, T/C: 17.5%

## Nc1ccn(C2OC(CO)C(O)C2(F)F)c(=O)n1 (centres undefined) + COC1C(OC(N)=O)C(O)C(Oc2ccc3c(O)c(NC(=O)c4ccc(O)c(CC=C(C)C)c4)c(=O)oc3c2C)OC1(C)C
Second compound 0.0316 µM
  IC50: 488 nM
Second compound 0.1 µM
  IC50: 477 nM
Second compound 0.316 µM
  IC50: 422 nM
Second compound 1 µM
  IC50: 395 nM
Second compound 3.16 µM
  IC50: 450 nM
Second compound 10 µM
  IC50: 411 nM
[1]
  viability, T/C: 81.3%
[2]
  viability, T/C: 74.4%
[3]
  viability, T/C: 55.7%
[4]
  viability, T/C: 39.5%
Second compound 0.0316 µM, first compound 3.16 µM
  viability, T/C: 29.8%
Second compound 0.0316 µM, first compound 10 µM
  viability, T/C: 25.6%
[5]
  viability, T/C: 82.2%
[6]
  viability, T/C: 74.3%
[7]
  viability, T/C: 54.4%
[8]
  viability, T/C: 39.4%
Second compound 0.1 µM, first compound 3.16 µM
  viability, T/C: 33%
Second compound 0.1 µM, first compound 10 µM
  viability, T/C: 25.3%
[9]
  viability, T/C: 86.1%
[10]
  viability, T/C: 76.2%
[11]
  viability, T/C: 52.8%
[12]
  viability, T/C: 37.5%
Second compound 0.316 µM, first compound 3.16 µM
  viability, T/C: 33%
Second compound 0.316 µM, first compound 10 µM
  viability, T/C: 25.6%
[13]
  viability, T/C: 81.2%
[14]
  viability, T/C: 77.7%
[15]
  viability, T/C: 49.2%
[16]
  viability, T/C: 39.5%
Second compound 1 µM, first compound 3.16 µM
  viability, T/C: 32.6%
Second compound 1 µM, first compound 10 µM
  viability, T/C: 25%
[17]
  viability, T/C: 84.5%
[18]
  viability, T/C: 73.8%
[19]
  viability, T/C: 54.7%
[20]
  viability, T/C: 38.5%
Second compound 3.16 µM, first compound 3.16 µM
  viability, T/C: 31.2%
Second compound 3.16 µM, first compound 10 µM
  viability, T/C: 26.7%
[21]
  viability, T/C: 83.1%
[22]
  viability, T/C: 70%
[23]
  viability, T/C: 53%
[24]
  viability, T/C: 38.8%
Second compound 10 µM, first compound 3.16 µM
  viability, T/C: 31.6%
Second compound 10 µM, first compound 10 µM
  viability, T/C: 26%

Reference: PubChem BioAssay AID1963841 (Molecular Pharmacology Branch, DTP, NCI, 2024)
